The target of the assay is T1, PLK3 (Homo sapiens, UniProt Q9H4B4).
T1 construct: purchased Thermo Fisher Scientific (Life Technologies) SelectScreen
The assay is described as follows: SelectScreen Z'LYTE. The format is biochemical. The gist of the method:
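Percent values come from Thermo SelectScreen profiling of NU5455, combining activity and binding assays. CSF1R was run in Z'LYTE format at Km app ATP, and CAMK1 in Adapta format with ATP listed at 10.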

In general, inhibition refers to the relative decrease from the control value, in per cent.

T1 sequence (Q9H4B4 whole entry): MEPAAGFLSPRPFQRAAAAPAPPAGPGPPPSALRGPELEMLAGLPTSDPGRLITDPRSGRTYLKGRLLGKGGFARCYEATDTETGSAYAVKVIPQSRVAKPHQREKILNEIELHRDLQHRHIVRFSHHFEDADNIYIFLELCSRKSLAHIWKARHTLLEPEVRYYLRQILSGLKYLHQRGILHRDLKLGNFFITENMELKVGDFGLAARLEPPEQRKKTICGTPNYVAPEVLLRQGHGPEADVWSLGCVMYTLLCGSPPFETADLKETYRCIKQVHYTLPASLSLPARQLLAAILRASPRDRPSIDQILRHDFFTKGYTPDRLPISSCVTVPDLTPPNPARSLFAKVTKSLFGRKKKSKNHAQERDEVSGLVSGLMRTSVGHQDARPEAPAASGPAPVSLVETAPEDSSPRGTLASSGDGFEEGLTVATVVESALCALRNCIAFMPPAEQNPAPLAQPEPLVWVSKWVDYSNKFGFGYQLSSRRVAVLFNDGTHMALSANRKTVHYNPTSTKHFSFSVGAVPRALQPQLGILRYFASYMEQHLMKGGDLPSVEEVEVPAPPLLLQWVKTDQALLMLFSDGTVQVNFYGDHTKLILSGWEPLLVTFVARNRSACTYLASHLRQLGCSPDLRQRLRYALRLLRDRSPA

As for `CN(C(=O)CN1CCOCC1)c1ccc2sc3c(-c4cccc5c(=O)cc(N6CC7CCC(C6)O7)oc45)cccc3c2c1` [NU5455], the inhibition at 1 µM was -18.2%.

(Values after publication PMC6934184, “Selective DNA-PKcs inhibition extends the therapeutic index of localized radiotherapy and chemotherapy” (The Journal of Clinical Investigation, 2019).)
